Assay results reported in PubChem BioAssay (NCI).
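Method: 48-hour compound exposure of cells in 96-well plates, five concentrations, linear interpolation of endpoints. The concentration for 50% growth inhibition is given as GI50. TGI is the concentration that stops growth completely.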

Tests used:
Assay in all cases: NCI tumour cell line growth inhibition, 48 h
SK-OV-3 ovarian = tested on: SK-OV-3 ovarian
MALME-3M melanoma = tested on: MALME-3M melanoma
MDA-MB-435 = tested on: MDA-MB-435
NCI-H226 lung = tested on: NCI-H226 lung
A498 renal = tested on: A498 renal
UACC-257 melanoma = tested on: UACC-257 melanoma
DU-145 prostate = tested on: DU-145 prostate
HT29 colon = tested on: HT29 colon
KM12 colon = tested on: KM12 colon
COLO 205 colon = tested on: COLO 205 colon
SF-295 CNS = tested on: SF-295 CNS
NCI-H522 lung = tested on: NCI-H522 lung
SW-620 colon = tested on: SW-620 colon
NCI-H23 lung = tested on: NCI-H23 lung
OVCAR-5 ovarian = tested on: OVCAR-5 ovarian
SR leukemia = tested on: SR leukemia
SF-268 CNS = tested on: SF-268 CNS
IGROV1 ovarian = tested on: IGROV1 ovarian
ACHN renal = tested on: ACHN renal
HS 578T breast = tested on: HS 578T breast
T-47D breast = tested on: T-47D breast
SNB-75 CNS = tested on: SNB-75 CNS
RXF 393 renal = tested on: RXF 393 renal
SK-MEL-28 melanoma = tested on: SK-MEL-28 melanoma
HCT-116 colon = tested on: HCT-116 colon
MDA-MB-468 breast = tested on: MDA-MB-468 breast
UO-31 renal = tested on: UO-31 renal
CCRF-CEM leukemia = tested on: CCRF-CEM leukemia
EKVX NSCLC = tested on: EKVX NSCLC
HL-60(TB) leukemia = tested on: HL-60(TB) leukemia

Q: What does the source list for `CN1CCN(CCS(=O)(=O)Nc2cc(-c3ccc4ncnc(Nc5ccc(F)c(Cl)c5)c4c3)cnc2Cl)CC1`?
A: TGI (SK-OV-3 ovarian): 7.28 µM; GI50 (MALME-3M melanoma): 0.726 µM; TGI (MALME-3M melanoma): 5.76 µM; GI50 (MDA-MB-435): 3.11 µM; TGI (MDA-MB-435): 16 µM; GI50 (NCI-H226 lung): 1.96 µM; TGI (NCI-H226 lung): > 100 µM; GI50 (A498 renal): 1.03 µM; TGI (A498 renal): 4.4 µM; GI50 (UACC-257 melanoma): 3.02 µM; TGI (UACC-257 melanoma): 17.2 µM; GI50 (DU-145 prostate): 3.23 µM; TGI (DU-145 prostate): > 100 µM; GI50 (HT29 colon): 3.87 µM; TGI (HT29 colon): 21.5 µM; GI50 (KM12 colon): 8.23 µM; TGI (KM12 colon): 31.5 µM; GI50 (COLO 205 colon): 2.74 µM; TGI (COLO 205 colon): 10.4 µM; GI50 (SF-295 CNS): 3.01 µM; TGI (SF-295 CNS): 65.1 µM; GI50 (NCI-H522 lung): 1.96 µM; TGI (NCI-H522 lung): 11.3 µM; GI50 (SW-620 colon): 1.95 µM; TGI (SW-620 colon): 38.6 µM; GI50 (NCI-H23 lung): 2.8 µM; TGI (NCI-H23 lung): 15.1 µM; GI50 (OVCAR-5 ovarian): 2.56 µM; TGI (OVCAR-5 ovarian): 27 µM; GI50 (SR leukemia): 2.06 µM; TGI (SR leukemia): 7.68 µM; GI50 (SF-268 CNS): 1.8 µM; TGI (SF-268 CNS): 37.7 µM; GI50 (IGROV1 ovarian): 0.686 µM; TGI (IGROV1 ovarian): 2.93 µM; GI50 (ACHN renal): 3.67 µM; TGI (ACHN renal): > 100 µM; GI50 (HS 578T breast): 0.32 µM; TGI (HS 578T breast): 3.75 µM; GI50 (T-47D breast): 0.221 µM; TGI (T-47D breast): 3.12 µM; GI50 (SNB-75 CNS): 0.458 µM; TGI (SNB-75 CNS): 11 µM; GI50 (RXF 393 renal): 0.784 µM; TGI (RXF 393 renal): 3.85 µM; GI50 (SK-MEL-28 melanoma): 2.39 µM; TGI (SK-MEL-28 melanoma): 37.4 µM; GI50 (HCT-116 colon): 4.18 µM; TGI (HCT-116 colon): 18.5 µM; GI50 (MDA-MB-468 breast): 0.205 µM; TGI (MDA-MB-468 breast): 0.902 µM; GI50 (UO-31 renal): 2.07 µM; TGI (UO-31 renal): 13.4 µM; GI50 (CCRF-CEM leukemia): 0.579 µM; TGI (CCRF-CEM leukemia): 80.4 µM; GI50 (EKVX NSCLC): 1.23 µM; TGI (EKVX NSCLC): 6.36 µM; GI50 (HL-60(TB) leukemia): 0.658 µM; TGI (HL-60(TB) leukemia): 23.7 µM
